Series [1] relates to blood glucose. Put plainly: Blood glucose concentration in rabbits after intradermal device infusion of insulin (Example 1, FIG. 19). In kind it is in vivo, rabbit. As to conditions: for mean blood glucose concentration: control value 6.25 mmol/l. As to the method: A device according to the present invention containing 0.6 ml of a solution of insulin (100 I.U./ml) was affixed to each of two rabbits and the devices were switched on. The insulin solution was infused at a rate of 0.1 ml/hour for two hours. […] At one hour, mean blood glucose concentration had fallen from a control value of 6.25 mmol/l to 3.2 mmol/l. This value stayed relatively constant at 1.5 hours following activation (2.65 mmol/l) and at 2 hours (2.5 mmol/l), at which time the devices were removed.

The nature of series [2]: Plasma insulin concentration (RIA) in rabbits during device delivery of insulin (Example 3). In kind it is in vivo, New Zealand white rabbits. As to conditions: 5 IU/h, time=3h. An excerpt: (§1) Devices manufactured according to the present invention were used to study the delivery of insulin, heparin and salmon calcitonin to New Zealand white rabbits weighing between 2.5 kg and 3.5 kg. Hair was removed from the dorsal surface of the animal using an electric clipper twenty-fours prior to application of the device. Arterial blood samples were withdrawn for determination of plasma concentration of drug through an indwelling cannula placed in the ear artery.
(§2) Diabetes was induced in test rabbits by administration intravenously of a 150 mg/kg dose of alloxan (monohydrate) to fasted rabbits. The rabbits were provided with a dextrose solution for three days after alloxan administration and after this time normal diet was resumed. Test animals were maintained healthy with a commercial insulin preparation prior to the study. The devices were attached to the rabbits and delivery of insulin at a rate of 5 IU/h was commenced to normoglycaemic animals (for 3 hours) and to diabetic animals (for 3.25 hours). Whole blood glucose concentrations were measured using an Ames glucometer and plasma insulin concentration were measured using a RIA method.

Series [3] deals with blood glucose. Put plainly: Whole blood glucose concentration (Ames glucometer) in rabbits during device delivery of insulin (Example 3). In kind it is in vivo, New Zealand white rabbits. As to conditions: normal and diabetic animals; 5 IU/h.
Text: as §1, §2

A further series has as its system serum calcium. The series can be described thus: Serum calcium concentration in rabbits after intradermal device infusion of salmon calcitonin (Example 2, FIG. 20). The class given is in vivo, rabbit. The note with it: for mean serum calcium concentration, % of control value: 1.0 mg/ml at 0.1 ml/hour for 6 hours, four rabbits. As to the method:
A device according to the present invention containing 0.6 ml of a solution of salmon calcitonin (1.0 mg/ml) was affixed to each of four rabbits. This solution was infused at the rate of 0.1 ml/hour for 6 hours. Serum calcium concentrations were measured via an ear vein at 0, 0.5, 1, 2, 3, 4, 5 and 6 hours following activation of the device, at which point the device was removed.

Series [4] in a line: Delivery of calcitonin from device compared with conventional subcutaneous injection (plasma calcitonin by EIA, plasma calcium by photometric analysis). The class given is in vivo, New Zealand white rabbits.
Text: as §1
To compare delivery of calcitonin using devices according to the present invention to conventional delivery, 40 IU calcitonin was delivered to a rabbit over 2 hours from a device according to the present invention and 20 IU calcitonin was delivered by a conventional single subcutaneous injection. In a further study, calcitonin was delivered at a rate of 25 IU/h and 100 IU/h for a period of 6 hours from devices according to the present invention. Plasma concentrations of calcium were measured using a photometric analysis while calcitonin concentrations were measured by an EIA method.

The format of series [5] is in vivo, New Zealand white rabbits. As to conditions: 1000 IU/h for 5 hours from device.
Text: as §1
Delivery of heparin from devices according to the present invention was studied by administering heparin at a rate of 1000 IU/h for 5 hours. Plasma heparing was assayed using an EIA method.

Experimental findings from patent US5997501A, “Intradermal drug delivery device” (Elan Corporation, plc, priority 1993, dated 1999) are described below.

In the case of “insulin: solution of insulin (100 I.U./ml)”, the “mean blood glucose concentration” value with blood glucose [1] (1 hour following activation, 100 I.U./ml at 0.1 ml/hour, two rabbits) stood at 3.2 mmol/L; in the series with blood glucose [1] (1.5 hours following activation, 100 I.U./ml at 0.1 ml/hour), 2.65 mmol/L; in the series on blood glucose [1] (2 hours following activation (devices removed), 100 I.U./ml at 0.1 ml/hour), 2.5 mmol/L; in the series on blood glucose [1] (one hour after device removal), 3.7 mmol/L. Further, the “mean blood glucose, course after device removal” value in the series with blood glucose [1] (later than one hour after device removal) was “continued to rise with time”. Moreover, the plasma insulin concentration result in series [2] (diabetic (alloxan) rabbits, approximately 10 fmol/ml at time 0) is on record as “approximately 240 fmol/ml”; in series [2] (normal (normoglycaemic) rabbits, approximately 25 fmol/ml at time 0), “approximately 275 fmol/ml”. In addition, the “blood glucose concentration, change” value in the series on blood glucose [3] is “corresponding decrease in blood glucose concentration was observed for both normal and diabetic animals”.

On to salmon calcitonin, for which the “mean calcium concentrations, course” value in the series on serum calcium (0 to 6 hours, 0.1 ml/hour) is “fell steadily throughout the period of application”. Besides, the “mean serum calcium concentration, % of control value” in the series with serum calcium (5 hours following activation) is on record as 62.5%; in the series on serum calcium (6 hours following activation), 66.6%. Further, in series [4] (25 IU/h and 100 IU/h for 6 hours from devices), the “delivery of calcitonin, dose proportionality” value is recorded as “dose proportional”. Also, the “delivery of calcitonin compared with conventional routes” value in series [4] (40 IU over 2 hours from device vs 20 IU single subcutaneous injection) was “comparable to that from conventional routes”.

As to heparin, the “amounts of heparin delivered” value in series [5] is recorded as “significant anticoagulant amounts”.
